Experimental data from patent US20110003000A1, “Transvaginal Delivery of Drugs” (FemmePharma Holding Company, Inc., priority 2009, published 2011).
Structures can show the parent of a compound that is named as a salt.

Tests used:
[1] = tested on: urgency incontinence; urinary frequency, urgency and nocturia; assay: Clinical case reports of transvaginal oxybutynin; assay type: in vivo, human; conditions: person
Procedure: A person developed urgency incontinence two years after their laparoscopically assisted transvaginal hysterectomy. […] Two weeks later, they started applying oxybutynin (5 mg) into the vagina at bed time, instead of Ditropan XL. […] The patient used transvaginal oxybutynin (5 mg) at bed time for 6 months.
A person with a history of chronic pelvic pain and multiple surgical procedures, including pain mapping under conscious sedation and repair of occult bilateral inguinal hernias, developed urinary frequency, urgency and nocturia. Their urine analysis and urine culture were negative for signs of urinary tract infection. Their treatment began with transvaginal oxybutynin (5 mg) once daily, at bed time, applied into the vagina.

[2] = tested on: persistent urge incontinence; conditions: intravesical administration; eleven patients; cited from earlier work
[3] = 5 mg into the vagina at bed time
[4] = 5 mg into the vagina twice daily
[5] = transvaginal 5 mg at bed time for 6 months

Question: With `Cc1ccc(O)c([C@H](CCN(C(C)C)C(C)C)c2ccccc2)c1` [DETROL, tolterodine tartrate] as the compound, how does the “improvement of urgency incontinence” value ([1]; 2 mg orally twice a day) read?
Answer: The value was “slight improvement”.

Question: For `CCN(CC)CC#CCOC(=O)C(O)(c1ccccc1)C1CCCCC1` (stereo not shown) [oxybutynin chloride], which “patients reporting improvement and becoming totally continent” value [2] is on record?
Answer: The value was “Ten out of eleven”.

Question: What about the side effects [2] of the same compound?
Answer: Its side effects is “no side effects were observed”.

Question: What does the source list for `CCN(CC)CC#CCOC(=O)C(O)(c1ccccc1)C1CCCCC1` (stereo not shown) [oxybutynin]?
Answer: side effects [1, 3]: did not experience any noticeable side effects; urgency symptoms [1, 3]: improved remarkably; improvement of symptoms [1, 4]: remarkable improvement; side effects [1, 4]: no significant side effects; control of symptoms of urgency incontinence throughout the treatment period [1, 5]: remained effective; side effects throughout the treatment period [1, 5]: did not suffer from any side effects; improvement of urinary frequency, urgency and nocturia ([1]; transvaginal 5 mg once daily at bed time): significant improvement
